Results reported in PubChem BioAssay (NCI).
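Protocol summary: plate cells (96-well), add compound at 5 concentrations, incubate 48 h, interpolate endpoints linearly. Here, GI50 denotes the concentration required for 50% inhibition of growth. TGI: total growth inhibition.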

Tests used:
Experiment in all cases: NCI anticancer screen, dose series, 48 h
PC-3 prostate = test system: PC-3 prostate
NCI-H522 lung = test system: NCI-H522 lung
MALME-3M melanoma = test system: MALME-3M melanoma
MCF7 breast = test system: MCF7 breast
SNB-75 CNS = test system: SNB-75 CNS
SF-268 CNS = test system: SF-268 CNS
HT29 colon = test system: HT29 colon
SK-OV-3 ovarian = test system: SK-OV-3 ovarian
SF-539 CNS = test system: SF-539 CNS
HOP-62 NSCLC = test system: HOP-62 NSCLC
ACHN renal = test system: ACHN renal
MDA-MB-435 = test system: MDA-MB-435
UACC-257 melanoma = test system: UACC-257 melanoma
U251 CNS = test system: U251 CNS
HCT-15 colon = test system: HCT-15 colon
HS 578T breast = test system: HS 578T breast
HCC-2998 colon = test system: HCC-2998 colon
786-0 renal = test system: 786-0 renal
A549 NSCLC = test system: A549 NSCLC
HL-60(TB) leukemia = test system: HL-60(TB) leukemia
OVCAR-8 ovarian = test system: OVCAR-8 ovarian
MOLT-4 leukemia = test system: MOLT-4 leukemia
T-47D breast = test system: T-47D breast
NCI/ADR-RES ovarian = test system: NCI/ADR-RES ovarian
COLO 205 colon = test system: COLO 205 colon
SNB-19 CNS = test system: SNB-19 CNS
M14 melanoma = test system: M14 melanoma
A498 renal = test system: A498 renal
CCRF-CEM leukemia = test system: CCRF-CEM leukemia
RXF 393 renal = test system: RXF 393 renal
NCI-H23 lung = test system: NCI-H23 lung
OVCAR-5 ovarian = test system: OVCAR-5 ovarian
IGROV1 ovarian = test system: IGROV1 ovarian
SW-620 colon = test system: SW-620 colon
OVCAR-3 ovarian = test system: OVCAR-3 ovarian
SR leukemia = test system: SR leukemia
OVCAR-4 ovarian = test system: OVCAR-4 ovarian
DU-145 prostate = test system: DU-145 prostate
NCI-H226 lung = test system: NCI-H226 lung
SN12C renal = test system: SN12C renal
SK-MEL-28 melanoma = test system: SK-MEL-28 melanoma
KM12 colon = test system: KM12 colon
HOP-92 NSCLC = test system: HOP-92 NSCLC
EKVX NSCLC = test system: EKVX NSCLC
MDA-MB-231 breast = test system: MDA-MB-231 breast
HCT-116 colon = test system: HCT-116 colon
CAKI-1 renal = test system: CAKI-1 renal
SK-MEL-5 melanoma = test system: SK-MEL-5 melanoma
K-562 leukemia = test system: K-562 leukemia
UACC-62 melanoma = test system: UACC-62 melanoma
LOX IMVI melanoma = test system: LOX IMVI melanoma
RPMI-8226 leukemia = test system: RPMI-8226 leukemia
SF-295 CNS = test system: SF-295 CNS
NCI-H460 lung = test system: NCI-H460 lung
BT-549 breast = test system: BT-549 breast
TK-10 renal = test system: TK-10 renal
SK-MEL-2 melanoma = test system: SK-MEL-2 melanoma
UO-31 renal = test system: UO-31 renal

What does the source list for `CCN1CCC(CC(=O)Nc2n[nH]c3nnc(-c4cccc(F)c4F)cc23)CC1`?
GI50 (PC-3 prostate): > 25 µM; TGI (PC-3 prostate): > 25 µM; GI50 (NCI-H522 lung): > 25 µM; TGI (NCI-H522 lung): > 25 µM; GI50 (MALME-3M melanoma): > 25 µM; TGI (MALME-3M melanoma): > 25 µM; GI50 (MCF7 breast): 4.11 µM; TGI (MCF7 breast): > 25 µM; TGI (SNB-75 CNS): > 25 µM; GI50 (SF-268 CNS): > 25 µM; TGI (SF-268 CNS): > 25 µM; GI50 (HT29 colon): 12.4 µM; TGI (HT29 colon): > 25 µM; GI50 (SK-OV-3 ovarian): > 25 µM; TGI (SK-OV-3 ovarian): > 25 µM; GI50 (SF-539 CNS): > 18.9 µM; TGI (SF-539 CNS): > 25 µM; GI50 (HOP-62 NSCLC): > 25 µM; TGI (HOP-62 NSCLC): > 25 µM; GI50 (ACHN renal): > 25 µM; TGI (ACHN renal): > 25 µM; GI50 (MDA-MB-435): > 25 µM; TGI (MDA-MB-435): > 25 µM; GI50 (UACC-257 melanoma): > 25 µM; TGI (UACC-257 melanoma): > 25 µM; GI50 (U251 CNS): 21.2 µM; TGI (U251 CNS): > 25 µM; GI50 (HCT-15 colon): > 25 µM; TGI (HCT-15 colon): > 25 µM; GI50 (HS 578T breast): > 19.9 µM; TGI (HS 578T breast): > 25 µM; GI50 (HCC-2998 colon): > 25 µM; TGI (HCC-2998 colon): > 25 µM; GI50 (786-0 renal): > 25 µM; TGI (786-0 renal): > 25 µM; GI50 (A549 NSCLC): > 25 µM; TGI (A549 NSCLC): > 25 µM; GI50 (HL-60(TB) leukemia): > 25 µM; TGI (HL-60(TB) leukemia): > 25 µM; GI50 (OVCAR-8 ovarian): > 25 µM; TGI (OVCAR-8 ovarian): > 25 µM; GI50 (MOLT-4 leukemia): > 25 µM; TGI (MOLT-4 leukemia): > 25 µM; GI50 (T-47D breast): > 25 µM; TGI (T-47D breast): > 25 µM; GI50 (NCI/ADR-RES ovarian): > 25 µM; TGI (NCI/ADR-RES ovarian): > 25 µM; GI50 (COLO 205 colon): 22.3 µM; TGI (COLO 205 colon): > 25 µM; GI50 (SNB-19 CNS): > 25 µM; TGI (SNB-19 CNS): > 25 µM; GI50 (M14 melanoma): > 25 µM; TGI (M14 melanoma): > 25 µM; GI50 (A498 renal): 2.84 µM; TGI (A498 renal): > 25 µM; GI50 (CCRF-CEM leukemia): > 25 µM; TGI (CCRF-CEM leukemia): > 25 µM; GI50 (RXF 393 renal): 5.56 µM; TGI (RXF 393 renal): > 25 µM; GI50 (NCI-H23 lung): > 25 µM; TGI (NCI-H23 lung): > 25 µM; GI50 (OVCAR-5 ovarian): > 25 µM; TGI (OVCAR-5 ovarian): > 25 µM; GI50 (IGROV1 ovarian): > 25 µM; TGI (IGROV1 ovarian): > 25 µM; GI50 (SW-620 colon): > 25 µM; TGI (SW-620 colon): > 25 µM; GI50 (OVCAR-3 ovarian): 3.65 µM; TGI (OVCAR-3 ovarian): > 25 µM; GI50 (SR leukemia): > 25 µM; TGI (SR leukemia): > 25 µM; GI50 (OVCAR-4 ovarian): > 25 µM; TGI (OVCAR-4 ovarian): > 25 µM; GI50 (DU-145 prostate): > 25 µM; TGI (DU-145 prostate): > 25 µM; GI50 (NCI-H226 lung): 22.5 µM; TGI (NCI-H226 lung): > 25 µM; GI50 (SN12C renal): > 25 µM; TGI (SN12C renal): > 25 µM; GI50 (SK-MEL-28 melanoma): > 25 µM; TGI (SK-MEL-28 melanoma): > 25 µM; GI50 (KM12 colon): > 25 µM; TGI (KM12 colon): > 25 µM; GI50 (HOP-92 NSCLC): > 25 µM; TGI (HOP-92 NSCLC): > 25 µM; GI50 (EKVX NSCLC): > 25 µM; TGI (EKVX NSCLC): > 25 µM; GI50 (MDA-MB-231 breast): > 25 µM; TGI (MDA-MB-231 breast): > 25 µM; GI50 (HCT-116 colon): 24.9 µM; TGI (HCT-116 colon): > 25 µM; GI50 (CAKI-1 renal): > 25 µM; TGI (CAKI-1 renal): > 25 µM; GI50 (SK-MEL-5 melanoma): > 6.37 µM; TGI (SK-MEL-5 melanoma): > 25 µM; GI50 (K-562 leukemia): > 25 µM; TGI (K-562 leukemia): > 25 µM; GI50 (UACC-62 melanoma): > 25 µM; TGI (UACC-62 melanoma): > 25 µM; GI50 (LOX IMVI melanoma): > 25 µM; TGI (LOX IMVI melanoma): > 25 µM; GI50 (RPMI-8226 leukemia): > 25 µM; TGI (RPMI-8226 leukemia): > 25 µM; GI50 (SF-295 CNS): 18 µM; TGI (SF-295 CNS): > 25 µM; GI50 (NCI-H460 lung): > 25 µM; TGI (NCI-H460 lung): > 25 µM; GI50 (BT-549 breast): > 25 µM; TGI (BT-549 breast): > 25 µM; GI50 (TK-10 renal): > 25 µM; TGI (TK-10 renal): > 25 µM; GI50 (SK-MEL-2 melanoma): 16.9 µM; TGI (SK-MEL-2 melanoma): > 25 µM; GI50 (UO-31 renal): > 25 µM; TGI (UO-31 renal): > 25 µM
